According to ChEMBL document CHEMBL1671630, “Phenotypic characterization of two Ancylostoma caninum isolates with different susceptibilities to the anthelmintic pyrantel” (Antimicrob Agents Chemother, 2008):

Tests used:
Type in all cases: functional
Ancylostoma caninum [1] = assay: Antiparasitic activity against Ancylostoma caninum isolate NT assessed as compound concentration required to inhibit parasitic contraction by larval arrested morphology assay
Ancylostoma caninum [2] = assay: Antiparasitic activity against Ancylostoma caninum isolate PR assessed as compound concentration required to inhibit parasitic contraction by larval arrested morphology assay
Ancylostoma caninum [3] = assay: Ratio of IC50 for Ancylostoma caninum isolate NT to IC50 for Ancylostoma caninum isolate PR by larval arrested morphology assay
Ancylostoma caninum [4] = assay: Antiparasitic activity against Ancylostoma caninum isolate NT assessed as compound concentration required to inhibit parasitic contraction by larval motility assay
Ancylostoma caninum [5] = assay: Antiparasitic activity against Ancylostoma caninum isolate PR assessed as compound concentration required to inhibit parasitic contraction by larval motility assay
Ancylostoma caninum [6] = assay: Ratio of IC50 for Ancylostoma caninum isolate NT to IC50 for Ancylostoma caninum isolate PR by larval motility assay
Ancylostoma caninum [7] = assay: Antiparasitic activity against Ancylostoma caninum isolate NT assessed as concentration of drug required to cause a force of contraction half that of the KCl-induced maximal contraction by force transduction assay
Ancylostoma caninum [8] = assay: Antiparasitic activity against Ancylostoma caninum isolate PR assessed as concentration of drug required to cause a force of contraction half that of the KCl-induced maximal contraction by force transduction assay
Ancylostoma caninum [9] = assay: Ratio of EC50 for Ancylostoma caninum isolate PR to […] by force transduction assay

Structure (SMILES)	EC50 (Ancylostoma caninum [7])	EC50 (Ancylostoma caninum [8])	IC50 (Ancylostoma caninum [1])	IC50 (Ancylostoma caninum [2])	Ratio IC50 (Ancylostoma caninum [3])	IC50 (Ancylostoma caninum [4])	IC50 (Ancylostoma caninum [5])	Ratio IC50 (Ancylostoma caninum [6])	Ratio EC50 (Ancylostoma caninum [9])
Cl.c1ccc([C@H]2CN3CCSC3=N2)cc1 [LEVAMISOLE HYDROCHLORIDE]	120 µM	244 µM	0.0022 µM	0.017 µM	7.2	0.0015 µM	0.004 µM	2.7	2
CN1CCCN=C1/C=C/c1cccs1.O=C(O)c1cc2ccccc2c(Cc2c(O)c(C(=O)O)cc3ccccc23)c1O [PYRANTEL PAMOATE]	–	–	–	–	18.3	–	–	–	3.1
CN1CCC[C@H]1c1cccnc1 [NICOTINE]	942 µM	1960 µM	5.8 µM	6.2 µM	1.07	3.7 µM	3.6 µM	0.95	2.1

Further lines, with some results ahead:

EC50 (Ancylostoma caninum [7])	EC50 (Ancylostoma caninum [8])	Structure (SMILES)	IC50 (Ancylostoma caninum [1])	IC50 (Ancylostoma caninum [2])	Ratio IC50 (Ancylostoma caninum [3])	IC50 (Ancylostoma caninum [4])	IC50 (Ancylostoma caninum [5])	Ratio IC50 (Ancylostoma caninum [6])	Ratio EC50 (Ancylostoma caninum [9])
217 µM	681 µM	CN1CCCN=C1/C=C/c1cccs1 [PYRANTEL PAMOATE]	0.0037 µM	0.066 µM	–	–	–	–	–
2880 µM	2790 µM	C[N+](C)(CCOc1ccccc1)Cc1ccccc1.O=C([O-])c1cc2ccccc2cc1O [BEPHENIUM HYDROXYNAPHTHOATE]	45 µM	17 µM	0.46	19 µM	8.6 µM	0.45	0.97
